From publication PMC7354229 (ACS infectious diseases, 2020) come the findings set out here.

Read-outs that look alike come from different tables or passages of the source.

Format in all cases: cell-based, Staphylococcus aureus
The test system of assay [1] is S. aureus JE2 transposon mutant SAUSA300_1962. In words: MIC ratio WT/mutant.
Assay [2] has as its system S. aureus JE2 transposon mutant SAUSA300_1255 (mprF). Put plainly: MIC ratio WT/mutant.
In assay [3] the test system is S. aureus JE2 transposon mutant SAUSA300_1465. In words: MIC ratio WT/mutant.
Assay [4] deals with S. aureus JE2 transposon mutant SAUSA300_0186 (argC).
The test system of assay [5] is S. aureus JE2 transposon mutant SAUSA300_1898.
Assay [6] relates to S. aureus JE2 transposon mutant SAUSA300_1037 (pheS). In words: MIC ratio WT/mutant.
Assay [7] relates to S. aureus JE2 transposon mutant SAUSA300_0988 (trkA). In words: MIC ratio WT/mutant.
For assay [8], the system named is S. aureus JE2 transposon mutant SAUSA300_1503.
Assay [9] relates to S. aureus JE2 transposon mutant SAUSA300_0829 (lipA). Put plainly: MIC ratio WT/mutant.
Assay [10] concerns S. aureus JE2 transposon mutant SAUSA300_0647 (vraF). Put plainly: MIC ratio WT/mutant.
Assay [11] deals with S. aureus JE2 transposon mutant SAUSA300_1867. Put plainly: MIC ratio WT/mutant.
Assay [12] has as its system S. aureus JE2 transposon mutant SAUSA300_1336.
Assay [13] deals with S. aureus JE2 transposon mutant SAUSA300_1967.
For assay [14], the system named is S. aureus JE2 transposon mutant SAUSA300_0646 (graS). Put plainly: MIC ratio WT/mutant.
Assay [15] concerns S. aureus JE2 transposon mutant SAUSA300_1036.
Assay [16] deals with S. aureus JE2 transposon mutants. The note with it: peptide at 1.56 μM, propidium iodide.
A further assay relates to S. aureus. Put plainly: Growth inhibition in 100% TSB.

Turning to `CN(C)c1cc(NC(=O)CNC(C)(C)C)c(O)c2c1C[C@H]1C[C@H]3[C@H](N(C)C)C(O)=C(C(N)=O)C(=O)[C@@]3(O)C(O)=C1C2=O` [Tige, tigecycline], the “Fold decrease of MIC (MIC ratio WT / mutant)” value in assay [1] is 4 fold; in assay [2], 2 fold; in assay [3], 6 fold; in assay [4] it was 2 fold; in [5], 2 fold; in assay [6] it was 2–4 fold. Besides, the “Fold decrease of MIC (MIC ratio WT / mutant)” value in [7], in assay [8], in [9], in assay [10], in [11] and in assay [12] was 2 fold in each case. Further, the “Fold decrease of MIC (MIC ratio WT / mutant)” value in assay [13], in [14] and in assay [15] was 2 fold in each case.
With `CC(=O)NC[C@H]1CN(c2ccc(N3CCOCC3)c(F)c2)C(=O)O1` [Linez, linezolid], the “Fold decrease of MIC (MIC ratio WT / mutant)” value in [1] is reported as 2–4 fold; in assay [3], 6 fold; in [6], 2 fold; in assay [8], 2 fold; in assay [10], 6 fold.
Take `CN[C@H](CC(C)C)C(=O)N[C@H]1C(=O)N[C@@H](CC(N)=O)C(=O)N[C@H]2C(=O)N[C@H]3C(=O)N[C@H](C(=O)N[C@H](C(=O)O)c4cc(O)cc(O)c4-c4cc3ccc4O)[C@H](O)c3ccc(c(Cl)c3)Oc3cc2cc(c3O[C@@H]2O[C@H](CO)[C@@H](O)[C@H](O)[C@H]2O[C@H]2C[C@](C)(N)[C@H](O)[C@H](C)O2)Oc2ccc(cc2Cl)[C@H]1O` [Van, vancomycin]: the “Fold decrease of MIC (MIC ratio WT / mutant)” value in assay [1] was 2 fold; in assay [2], 2 fold; in assay [3] it was 4 fold; in assay [6] it was 4 fold; in [10], 2–4 fold; in [11], 2 fold. In assay [14], the “Fold decrease of MIC (MIC ratio WT / mutant)” value is reported as 2–4 fold.
In the case of `CC[C@H](C)[C@H](NC(=O)[C@H](CCCCN)NC(=O)[C@H](CCC(=O)O)NC(=O)[C@H](CCCCN)NC(=O)[C@H](CO)NC(=O)[C@H](CCCCN)NC(=O)[C@H](CCCNC(=N)N)NC(=O)[C@H](Cc1ccccc1)NC(=O)[C@H](Cc1ccccc1)NC(=O)[C@H](CC(=O)O)NC(=O)CNC(=O)[C@H](CC(C)C)NC(=O)[C@@H](N)CC(C)C)C(=O)NCC(=O)N[C@@H](CCCCN)C(=O)N[C@@H](CCC(=O)O)C(=O)N[C@@H](Cc1ccccc1)C(=O)N[C@@H](CCCCN)C(=O)N[C@@H](CCCNC(=N)N)C(=O)N[C@H](C(=O)N[C@H](C(=O)N[C@@H](CCC(N)=O)C(=O)N[C@@H](CCCNC(=N)N)C(=O)N[C@H](C(=O)N[C@@H](CCCCN)C(=O)N[C@@H](CC(=O)O)C(=O)N[C@@H](Cc1ccccc1)C(=O)N[C@@H](CC(C)C)C(=O)N[C@@H](CCCNC(=N)N)C(=O)N[C@@H](CC(N)=O)C(=O)N[C@@H](CC(C)C)C(=O)N[C@H](C(=O)N1CCC[C@H]1C(=O)N[C@@H](CCCNC(=N)N)C(=O)N[C@H](C(=O)N[C@@H](CCC(=O)O)C(=O)N[C@@H](CO)C(=O)O)[C@@H](C)O)C(C)C)[C@@H](C)CC)C(C)C)[C@@H](C)CC` [LL-37], the “Membrane permeability of mutant relative to JE2” value in assay [16] (mutant SAUSA300_0646) is “less permeable”; in [16] (mutants SAUSA300_0186, 0829, 1089, 1097, 1220, 1228, 1515, 1865, 1867, 1962 and 1967) it was “essentially no differences”; in assay [16] (mutants SAUSA300_0645, 0647 and 1503), “slightly more permeable”; in assay [16] (mutants SAUSA300_1036, 1037 and 1255), “clearly more permeable than JE2”. Besides, in the assay on S. aureus, the “Inhibition of S. aureus growth” value is “did not inhibit”.
For `NC[C@H]1O[C@H](O[C@H]2[C@H](O)[C@@H](O[C@H]3O[C@H](CO)[C@@H](O)[C@H](N)[C@H]3O)[C@H](N)C[C@@H]2N)[C@H](N)C[C@@H]1O` [Tobra, tobramycin], the “Fold decrease of MIC (MIC ratio WT / mutant)” value in assay [1] amounted to 2 fold; in [2] it was 4 fold; in assay [3], 4 fold; in [6], 4 fold; in assay [10], 2 fold.
